{
  "source": "BindingDB's records for doi:10.1021/cb500009r",
  "about": "(Shanghai Center For Systems Biomedicine, 2014)",
  "key": {"[1]": {"molecular_target": "T1, Dopa decarboxylase (Aromatic L-amino acid decarboxylase), isoform CRA_a (Homo sapiens, UniProt Q53Y41)", "T1 sequence (Q53Y41 whole entry)": "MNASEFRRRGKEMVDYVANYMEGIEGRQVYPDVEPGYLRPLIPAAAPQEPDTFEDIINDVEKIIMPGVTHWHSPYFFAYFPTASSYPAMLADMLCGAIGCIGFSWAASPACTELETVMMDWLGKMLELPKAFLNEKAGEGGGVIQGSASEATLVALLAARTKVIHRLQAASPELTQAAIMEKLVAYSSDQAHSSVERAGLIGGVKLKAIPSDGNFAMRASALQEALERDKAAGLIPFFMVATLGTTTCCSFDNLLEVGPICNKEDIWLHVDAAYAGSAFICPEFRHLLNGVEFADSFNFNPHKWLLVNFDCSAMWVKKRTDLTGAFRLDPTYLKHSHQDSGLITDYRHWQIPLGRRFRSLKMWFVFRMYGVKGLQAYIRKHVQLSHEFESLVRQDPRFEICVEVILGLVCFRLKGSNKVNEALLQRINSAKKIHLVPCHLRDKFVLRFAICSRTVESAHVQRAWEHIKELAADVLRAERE", "test": "DDC-MDH-PEPC-Linked assay", "conditions": "pH 8.05; 37 °C", "method": "To the wells of a 384-well polypropylene plate, 1 µL DMSO (control) or test compounds at indicated concentrations were added, followed by the addition of 24.5 µL enzyme mix [50 mM Tris-HCl, 50 mM NaCl, 0.015% (w/v) BSA, 5 mM MgCl2, 2 mM β-mercaptoethanol, 760 µM NADH, 330 nM PEPC, 100 µM PLP and 284 nM hDDC, pH 8.05], and 24.5 µL substrate mix [50 mM Tris-HCl containing 50 mM NaCl, 0.015% (w/v) BSA, 5 mM MgCl2, 2 mM β-mercaptoethanol, 10 mM PPPA, 0.49 U MDH and 1.5 mM L-DOPA, pH 8.05]. The plate was sealed and incubated for 1 h in 37 °C. The OD was taken at 340 nm."}, "[2]": {"molecular_target": "Cystathionine gamma-lyase (Homo sapiens, UniProt P32929)", "sequence (P32929 whole entry)": "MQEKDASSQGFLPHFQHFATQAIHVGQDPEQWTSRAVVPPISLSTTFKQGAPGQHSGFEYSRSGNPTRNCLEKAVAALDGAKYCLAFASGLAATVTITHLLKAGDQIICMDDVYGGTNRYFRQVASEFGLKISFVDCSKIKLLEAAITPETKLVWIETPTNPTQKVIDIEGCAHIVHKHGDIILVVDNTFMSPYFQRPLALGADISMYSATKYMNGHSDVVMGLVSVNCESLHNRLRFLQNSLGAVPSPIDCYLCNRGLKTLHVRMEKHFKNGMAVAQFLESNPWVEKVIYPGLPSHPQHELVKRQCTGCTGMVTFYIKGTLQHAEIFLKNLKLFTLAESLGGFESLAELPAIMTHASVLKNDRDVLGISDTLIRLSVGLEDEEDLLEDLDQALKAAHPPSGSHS", "test": "Human CSE enzyme assay", "conditions": "pH 7; 37 °C", "method": "500 nM hCSE in optimal buffer (50 mM Hepes, pH 7.0; final concentration) was incubated with compound for 45 min in the 192-tandem-well plate before adding substrate (5 mM L-cysteine; final concentration). The reaction was then incubated at 37 °C for 60 min before the absorbance at 413 nm of DTNB was measured."}},
  "data": [
    {"smiles": "COc1cc(CCCc2cc(C(CCc3ccc(O)c(OC)c3)c3cc(O)c(OC)cc3OC)c(O)cc2OC)ccc1O", "note": "(stereo not drawn) [Euonydiarylpropane D (4)]", "values": [
      {"measurement": "IC50", "setting": "[1]", "result": "> 200", "unit": "µM"},
      {"measurement": "IC50", "setting": "[2]", "result": "> 200", "unit": "µM"}
    ]},
    {"smiles": "COC1=CC(=O)C(CC(=O)Cc2ccc(O)c(OC)c2)=C(c2cc(CCCc3ccc(O)c(OC)c3)c(OC)cc2O)C1=O", "note": "[Euonyquinone A (5)]", "values": [
      {"measurement": "IC50", "setting": "[1]", "result": 11.5, "unit": "µM"},
      {"measurement": "IC50", "setting": "[2]", "result": "> 200", "unit": "µM"}
    ]},
    {"smiles": "COc1ccc(CCCc2ccc(O)c(OC)c2)c(O)c1", "note": "[1-(2-hydroxy-4-meth-oxyphenyl)-3-(4-hydroxy-3-methoxyphenyl)propane (12)]", "values": [
      {"measurement": "IC50", "setting": "[1]", "result": "> 200", "unit": "µM"},
      {"measurement": "IC50", "setting": "[2]", "result": "> 200", "unit": "µM"}
    ]},
    {"smiles": "C[C@](N)(Cc1ccc(O)c(O)c1)C(=O)O", "note": "[SMR000059170]", "values": [
      {"measurement": "IC50", "setting": "[1]", "result": 1200, "unit": "µM"},
      {"measurement": "IC50", "setting": "[2]", "result": 3000, "unit": "µM"}
    ]},
    {"smiles": "COc1cc(CCCc2cc(C(CCc3ccc(O)c(OC)c3)c3cc(OC)c(OC)cc3O)c(O)cc2OC)ccc1O", "note": "(stereo not drawn) [Euonydiarylpropane B (2)]", "values": [
      {"measurement": "IC50", "setting": "[1]", "result": 100, "unit": "µM"},
      {"measurement": "IC50", "setting": "[2]", "result": "> 200", "unit": "µM"}
    ]},
    {"smiles": "COc1cc(CC=C(c2cc(O)c(OC)cc2O)c2cc(CCCc3ccc(O)c(OC)c3)c(O)cc2OC)ccc1O", "note": "[Combrequinone B (6)]", "values": [
      {"measurement": "IC50", "setting": "[1]", "result": 21.6, "unit": "µM"},
      {"measurement": "IC50", "setting": "[2]", "result": "> 200", "unit": "µM"}
    ]},
    {"smiles": "COc1cc(OC)c2c(c1)O[C@@H](c1ccc(O)c(O)c1)CC2", "note": "[(2R)-3′,4′-Dihydroxy-5,7-methoxyflavan (14)]", "values": [
      {"measurement": "IC50", "setting": "[1]", "result": "> 200", "unit": "µM"},
      {"measurement": "IC50", "setting": "[2]", "result": "> 200", "unit": "µM"}
    ]},
    {"smiles": "COc1cc(CC=C(c2cc(O)c(OC)cc2O)c2c(OC)cc3c(c2O)CCC(c2ccc(O)c(OC)c2)O3)ccc1O", "note": "(stereo not drawn) [Euonyquinone B (7)]", "values": [
      {"measurement": "IC50", "setting": "[1]", "result": 50, "unit": "µM"},
      {"measurement": "IC50", "setting": "[2]", "result": "> 200", "unit": "µM"}
    ]},
    {"smiles": "COc1cc(CCCc2ccc(O)cc2OC)ccc1O", "note": "[Griffithane B (10)]", "values": [
      {"measurement": "IC50", "setting": "[1]", "result": "> 200", "unit": "µM"},
      {"measurement": "IC50", "setting": "[2]", "result": "> 200", "unit": "µM"}
    ]},
    {"smiles": "COc1cc(CCCc2ccc(OC)c(O)c2OC)ccc1O", "note": "[Broussonin F (11)]", "values": [
      {"measurement": "IC50", "setting": "[1]", "result": "> 200", "unit": "µM"},
      {"measurement": "IC50", "setting": "[2]", "result": "> 200", "unit": "µM"}
    ]},
    {"smiles": "COc1ccc2c(c1)O[C@@H](c1ccc(O)c(O)c1)CC2", "note": "[(2R)-3′,4′-Dihydroxy-7-methoxyflavan (13)]", "values": [
      {"measurement": "IC50", "setting": "[1]", "result": "> 200", "unit": "µM"},
      {"measurement": "IC50", "setting": "[2]", "result": "> 200", "unit": "µM"}
    ]},
    {"smiles": "COc1ccc(C(CCc2ccc(O)c(OC)c2)c2cc(CCCc3ccc(O)c(OC)c3)c(O)cc2OC)c(O)c1", "note": "(stereo not drawn) [Euonydiarylpropane C (3)]", "values": [
      {"measurement": "IC50", "setting": "[1]", "result": "> 200", "unit": "µM"},
      {"measurement": "IC50", "setting": "[2]", "result": "> 200", "unit": "µM"}
    ]},
    {"smiles": "COc1cc(CC=C(c2cc(O)c(OC)cc2O)c2c(OC)cc3c(c2O)CCC(c2ccc(O)c(O)c2)O3)ccc1O", "note": "(stereo not drawn) [(+)-Euonyquinone C (9)]", "values": [
      {"measurement": "IC50", "setting": "[1]", "result": 100, "unit": "µM"},
      {"measurement": "IC50", "setting": "[2]", "result": "> 200", "unit": "µM"}
    ]},
    {"smiles": "COc1cc(CCCc2cc(C(CCc3ccc(O)c(OC)c3)c3cc(OC)c(OC)cc3O)c(OC)cc2O)ccc1O", "note": "(stereo not drawn) [Euonydiarylpropane A (1)]", "values": [
      {"measurement": "IC50", "setting": "[1]", "result": 100, "unit": "µM"},
      {"measurement": "IC50", "setting": "[2]", "result": "> 200", "unit": "µM"}
    ]}
  ]
}
